What was measured:
RORγ-LBD = target: T1, RORγ-LBD (Homo sapiens, UniProt P51449); test: RORγ-Ligand Binding Domain (LBD) TR-FRET Assay; format: biochemical;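 for TR-FRET Assay Max Response: 665/615 nm ratio relative to signal without ursolic acid or compound set at 100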
T1 construct: made in house; host or cells: SF9 cells (baculovirus)
T1 sequence (P51449 269-508 limits assumed): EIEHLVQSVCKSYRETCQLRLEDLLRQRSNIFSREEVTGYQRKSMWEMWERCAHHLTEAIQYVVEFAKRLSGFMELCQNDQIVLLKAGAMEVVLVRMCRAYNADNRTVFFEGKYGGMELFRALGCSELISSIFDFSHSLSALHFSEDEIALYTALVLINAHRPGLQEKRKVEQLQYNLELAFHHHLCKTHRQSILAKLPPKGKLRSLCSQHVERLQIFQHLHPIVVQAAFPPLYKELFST
How it was run: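 This TR-FRET coactivator assay pairs baculovirus-expressed His-RORγ-LBD (~3 nM final) with biotin-SRC1 LXXLL peptide at 200 nM final in pH 7.0 Tris/KCl/EDTA/DTT/BSA buffer.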

Gal4-RORγ-LBD = target: T2, Gal4-RORγ-LBD (Homo sapiens, UniProt P51449); test: Gal4-RORγ Luciferase Reporter Assay in HEK-293T Cells; format: cell-based; details: HEK-293 cells
T2 construct: expressed in transfected cells; host or cells: HEK-293 cells (pcDNA3.1neo plasmid)
T2 sequence (P51449 269-508 limits assumed): T1 sequence (P51449 269-508 limits assumed)
How it was run: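 Luminescence read-out (One-Glo, 10 min RT) after overnight compound exposure at 37 °C in HEK-293 cells carrying Gal4-RORγ-LBD plus a Gal4-luciferase reporter, in the presence of 2 μM ursolic acid. Max Response is the upper plateau from a 4-parameter logistic fit, normalized to untreated signal = 100.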

[1] = luciferase reporter, with 2 μM ursolic acid

Row | EC50 (RORγ-LBD) | EC50 (Gal4-RORγ-LBD; 2 μM ursolic acid) | EC50 (Gal4-RORγ-LBD; [1]) | SMILES | TR-FRET Assay Max Response (RORγ-LBD) | Gal4-RORγ Assay Max Response (Gal4-RORγ-LBD; 2 μM ursolic acid) | Gal4-RORγ Assay Max Response (Gal4-RORγ-LBD; [1])
1 | < 500 nM | 500 to 5000 nM |  | CC(C)(O)CC(=O)NC[C@H]1CN(S(=O)(=O)c2cccc(C(F)(F)F)c2)c2cc(-c3cccc(F)c3Cl)ccc2O1 [Compound 30CG, (S)-N-((6-(2-chloro-3-fluoro-phenyl)-4-((3-(trifluoromethyl)-phenyl)sulfonyl)-3,4-dihydro-2H-benzo[b][1,4]oxazin-2-yl)methyl)-3-hydroxy-3-methylbutanamide] | *** (The symbol “***” indicates a value in the range of greater than 150 to 200) | * (The symbol “*” indicates a value in the range of 25 to 90) | 
2 | < 500 nM | 500 to 5000 nM |  | COCCC(=O)NC[C@H]1CN(S(=O)(=O)c2cccc(C(F)(F)F)c2)c2cc(-c3cccc(F)c3Cl)ccc2O1 [Compound 30CH, (S)-N-((6-(2-chloro-3-fluoro-phenyl)-4-((3-(trifluoromethyl)-phenyl)sulfonyl)-3,4-dihydro-2H-benzo[b][1,4]oxazin-2-yl)methyl)-3-methoxy-propanamide] | *** (The symbol “***” indicates a value in the range of greater than 150 to 200) | * (The symbol “*” indicates a value in the range of 25 to 90) | 
3 | < 500 nM | 500 to 5000 nM |  | CO[C@@H](C)C(=O)NC[C@H]1CN(S(=O)(=O)c2cccc(C(F)(F)F)c2)c2cc(-c3cccc(F)c3Cl)ccc2O1 [Compound 30CI, (S)-N-(((S)-6-(2-chloro-3-fluorophenyl)-4-((3-(trifluoro-methyl)phenyl)sulfonyl)-3,4-dihydro-2H-benzo[b][1,4]-oxazin-2-yl)methyl)-2-methoxypropanamide] | *** (The symbol “***” indicates a value in the range of greater than 150 to 200) | * (The symbol “*” indicates a value in the range of 25 to 90) | 
4 | < 500 nM | 500 to 5000 nM |  | CC(=O)N[C@H](C)C(=O)NC[C@H]1CN(S(=O)(=O)c2cccc(C(F)(F)F)c2)c2cc(-c3cccc(F)c3Cl)ccc2O1 [Compound 30CJ, (R)-2-acetamido-N-(((S)-6-(2-chloro-3-fluorophenyl)-4-((3-(trifluoromethyl)phenyl)-sulfonyl)-3,4-dihydro-2H-benzo[b][1,4]oxazin-2-yl)methyl)propanamide] | ** (The symbol “**” indicates a value in the range of greater than 90 to 150) | * (The symbol “*” indicates a value in the range of 25 to 90) | 
5 | < 500 nM | 500 to 5000 nM |  | CC(F)C(=O)NC[C@H]1CN(S(=O)(=O)c2cccc(C(F)(F)F)c2)c2cc(-c3cccc(F)c3Cl)ccc2O1 (stereo partly drawn) [Compound 30CK, N-(((S)-6-(2-chloro-3-fluoro-phenyl)-4-((3-(trifluoromethyl)-phenyl)sulfonyl)-3,4-dihydro-2H-benzo[b][1,4]oxazin-2-yl)methyl)-2-fluoropropanamide] | ** (The symbol “**” indicates a value in the range of greater than 90 to 150) | * (The symbol “*” indicates a value in the range of 25 to 90) | 
6 | 500 to 5000 nM | 500 to 5000 nM |  | CC(C)(C(=O)NC[C@H]1CN(S(=O)(=O)c2cccc(C(F)(F)F)c2)c2cc(-c3cc(F)cc(F)c3Cl)ccc2O1)C(F)(F)F [Compound 30CL, (S)-N-((6-(2-chloro-3,5-difluoro-phenyl)-4-((3-(trifluoromethyl)-phenyl)sulfonyl)-3,4-dihydro-2H-benzo[b][1,4]oxazin-2-yl)methyl)-3,3,3-trifluoro-2,2-dimethylpropanamide] | ** (The symbol “**” indicates a value in the range of greater than 90 to 150) | * (The symbol “*” indicates a value in the range of 25 to 90) | 
7 | < 500 nM | < 500 nM |  | CC(=O)NC(C)(C)C[C@H]1CN(S(=O)(=O)c2cccc(C(F)(F)F)c2)c2cc(-c3cc(F)ccc3F)ccc2O1 [Compound 30CV, (S)-N-(1-(6-(2,5-difluoro-phenyl)-4-((3-(trifluoromethyl)-phenyl)sulfonyl)-3,4-dihydro-2H-benzo[b][1,4]oxazin-2-yl)-2-methylpropan-2-yl)acetamide] | *** (The symbol “***” indicates a value in the range of greater than 150 to 200) | * (The symbol “*” indicates a value in the range of 25 to 90) | 
8 | < 500 nM | < 500 nM |  | CC(C)(C[C@H]1CN(S(=O)(=O)c2cccc(C(F)(F)F)c2)c2cc(-c3cc(F)ccc3F)ccc2O1)NC(=O)C(C)(C)O [Compound 30CX, (S)-N-(1-(6-(2,5-difluoro-phenyl)-4-((3-(trifluoromethyl)-phenyl)sulfonyl)-3,4-dihydro-2H-benzo[b][1,4]oxazin-2-yl)-2-methylpropan-2-yl)-2-hydroxy-2-methylpropanamide] | ** (The symbol “**” indicates a value in the range of greater than 90 to 150) | * (The symbol “*” indicates a value in the range of 25 to 90) | 
9 | < 500 nM |  | < 500 nM | CC(C)c1cccc(S(=O)(=O)N2C[C@H](CCNC(=O)C(C)(C)O)Oc3ccc(-c4cc(F)ccc4F)cc32)c1 [Compound 30D, (S)-N-(2-(6-(2,5-difluoro-phenyl)-4-((3-isopropylphenyl)-sulfonyl)-3,4-dihydro-2H-benzo[b][1,4]oxazin-2-yl)ethyl)-2-hydroxy-2-methylpropanamide] | **** (The symbol “****” indicates a value greater than 200) |  | * (The symbol “*” indicates a value in the range of 25 to 90)
10 | < 500 nM | 500 to 5000 nM |  | NS(=O)(=O)CCC(=O)NC[C@H]1CN(S(=O)(=O)c2cccc(C(F)(F)F)c2)c2cc(-c3cc(F)cc(OC(F)F)c3)ccc2O1 [Compound 30DA, (S)-N-((6-(3-(difluoromethoxy)-5-fluorophenyl)-4-((3-(trifluoro-methyl)phenyl)sulfonyl)-3,4-dihydro-2H-benzo[b][1,4]-oxazin-2-yl)methyl)-3-sulfamoylpropanamide] | *** (The symbol “***” indicates a value in the range of greater than 150 to 200) | * (The symbol “*” indicates a value in the range of 25 to 90) | 
11 | < 500 nM | 500 to 5000 nM |  | CC(=O)NC(C)(C)C[C@@H]1CN(S(=O)(=O)c2cccc(C(F)(F)F)c2)c2cc(-c3cc(F)ccc3F)ccc2O1 [Compound 30DC, (R)-N-(1-(6-(2,5-difluoro-phenyl)-4-((3-(trifluoromethyl)-phenyl)sulfonyl)-3,4-dihydro-2H-benzo[b][1,4]oxazin-2-yl)-2-methylpropan-2-yl)acetamide] | *** (The symbol “***” indicates a value in the range of greater than 150 to 200) | * (The symbol “*” indicates a value in the range of 25 to 90) | 
12 | < 500 nM | < 500 nM |  | CC(C)(C[C@H]1CN(S(=O)(=O)c2cccc(C(F)(F)F)c2)c2cc(-c3cc(F)ccc3F)ccc2O1)NS(C)(=O)=O [Compound 30DE, (S)-N-(1-(6-(2,5-difluoro-phenyl)-4-((3-(trifluoromethyl)-phenyl)sulfonyl)-3,4-dihydro-2H-benzo[b][1,4]oxazin-2-yl)-2-methylpropan-2-yl)methane-sulfonamide] | *** (The symbol “***” indicates a value in the range of greater than 150 to 200) | * (The symbol “*” indicates a value in the range of 25 to 90) | 
13 | < 500 nM | 500 to 5000 nM |  | CC(C)(F)C(=O)NC[C@H]1CN(S(=O)(=O)c2cccc(C(F)(F)F)c2)c2cc(-c3cc(F)cc(OC(F)F)c3)ccc2O1 [Compound 30DG, (S)-N-((6-(3-(difluoromethoxy)-5-fluorophenyl)-4-((3-(trifluoro-methyl)phenyl)sulfonyl)-3,4-dihydro-2H-benzo[b][1,4]-oxazin-2-yl)methyl)-2-fluoro-2-methylpropanamide] | *** (The symbol “***” indicates a value in the range of greater than 150 to 200) | * (The symbol “*” indicates a value in the range of 25 to 90) | 
14 | < 500 nM | < 500 nM |  | CC(C)(CO)C(=O)NC[C@H]1CN(S(=O)(=O)c2cccc(C(F)(F)F)c2)c2cc(-c3cc(F)cc(OC(F)F)c3)ccc2O1 [Compound 30DH, (S)-N-((6-(3-(difluoromethoxy)-5-fluorophenyl)-4-((3-(trifluoro-methyl)phenyl)sulfonyl)-3,4-dihydro-2H-benzo[b][1,4]-oxazin-2-yl)methyl)-3-hydroxy-2,2-dimethylpropanamide] | *** (The symbol “***” indicates a value in the range of greater than 150 to 200) | * (The symbol “*” indicates a value in the range of 25 to 90) | 

Reference: patent publication US10611740B2, “Aryl dihydro-2H-benzo[b][1,4]oxazine sulfonamide and related compounds for use as agonists of RORγ and the treatment of disease” (Lycera Corporation, priority 2015, dated 2020)
